Laboratory results: ChEMBL document CHEMBL3822398, “Design, synthesis and in vitro biological evaluation of short-chain C12-sphinganine and its 1,2,3-triazole analogs as potential antimicrobial and anti-biofilm agents” (Eur J Med Chem, 2016)
The source made the active and inactive calls.

Tests used:
Candida albicans [1] = assay: Fungicidal activity against Candida albicans MTCC 227 incubated for 24 hrs; type: functional; conditions: MTCC 227, 24 h
Escherichia coli [2] = assay: Bactericidal activity against Escherichia coli MTCC 739 incubated for 24 hrs; type: functional; conditions: MTCC 739, 24 h
[Candida] aaseri [3] = Antifungal activity against Candida aaseri MTCC 1962 incubated for 24 hrs at 30 degC by well diffusion method; type: functional; conditions: Yamadazyma aaseri, MTCC 1962, 24 h
Candida parapsilosis [4] = assay: Fungicidal activity against Candida parapsilosis MTCC 1744 incubated for 24 hrs; type: functional; conditions: Lodderomyces parapsilosis, MTCC 1744, 24 h
Pichia kudriavzevii [5] = assay: Antifungal activity against Candida krusei MTCC 3020 incubated for 24 hrs at 30 degC by well diffusion method; type: functional; conditions: MTCC 3020, 24 h
Bacillus subtilis [6] = assay: Bactericidal activity against Bacillus subtilis MTCC 121 incubated for 24 hrs; type: functional; conditions: MTCC 121, 24 h
[Candida] aaseri [7] = Fungicidal activity against Candida aaseri MTCC 1962 incubated for 24 hrs; type: functional; conditions: Yamadazyma aaseri, MTCC 1962, 24 h
Staphylococcus aureus [8] = assay: Bactericidal activity against Staphylococcus aureus MTCC 96 incubated for 24 hrs; type: functional; conditions: MTCC 96, 24 h
Raoultella planticola [9] = assay: Antibacterial activity against Klebsiella planticola MTCC 530 incubated for 24 hrs at 37 degC by well diffusion method; type: functional; conditions: MTCC 530, 24 h
Candida albicans [10] = assay: Antifungal activity against Candida albicans MTCC 1637 incubated for 24 hrs at 30 degC by well diffusion method; type: functional; conditions: MTCC 1637, 24 h
Nakaseomyces glabratus [11] = assay: Fungicidal activity against Candida glabrata MTCC 3019 incubated for 24 hrs; type: functional; conditions: MTCC 3019, 24 h
Staphylococcus aureus [12] = assay: Bactericidal activity against Staphylococcus aureus MLS16 MTCC 2940 incubated for 24 hrs; type: functional; conditions: MLS16 MTCC 2940, 24 h
Pichia sporocuriosa [13] = assay: Fungicidal activity against Issatchenkia hanoiensis MTCC 4755 incubated for 24 hrs; type: functional; conditions: MTCC 4755, 24 h
Staphylococcus aureus [14] = assay: Antibacterial activity against Staphylococcus aureus MTCC 96 incubated for 24 hrs at 37 degC by well diffusion method; type: functional; conditions: MTCC 96, 24 h
Candida albicans [15] = assay: Antifungal activity against Candida albicans MTCC 227 incubated for 24 hrs at 30 degC by well diffusion method; type: functional; conditions: MTCC 227, 24 h
Candida albicans [16] = assay: Antifungal activity against Candida albicans MTCC 854 incubated for 24 hrs at 30 degC by well diffusion method; type: functional; conditions: MTCC 854, 24 h
Candida albicans [17] = assay: Antifungal activity against Candida albicans MTCC 3958 incubated for 24 hrs at 30 degC by well diffusion method; type: functional; conditions: MTCC 3958, 24 h
Candida albicans [18] = assay: Fungicidal activity against Candida albicans MTCC 7315 incubated for 24 hrs; type: functional; conditions: MTCC 7315, 24 h
Candida albicans [19] = assay: Fungicidal activity against Candida albicans MTCC 854 incubated for 24 hrs; type: functional; conditions: MTCC 854, 24 h
Candida albicans [20] = assay: Fungicidal activity against Candida albicans MTCC 3017 incubated for 24 hrs; type: functional; conditions: MTCC 3017, 24 h
Raoultella planticola [21] = assay: Bactericidal activity against Klebsiella planticola MTCC 530 incubated for 24 hrs; type: functional; conditions: MTCC 530, 24 h
Escherichia coli [22] = assay: Antibacterial activity against Escherichia coli MTCC 739 incubated for 24 hrs at 37 degC by well diffusion method; type: functional; conditions: MTCC 739, 24 h
Candida parapsilosis [23] = assay: Antifungal activity against Candida parapsilosis MTCC 1744 incubated for 24 hrs at 30 degC by well diffusion method; type: functional; conditions: Lodderomyces parapsilosis, MTCC 1744, 24 h
Staphylococcus aureus [24] = assay: Antibacterial activity against Staphylococcus aureus MLS16 MTCC 2940 incubated for 24 hrs at 37 degC by well diffusion method; type: functional; conditions: MLS16 MTCC 2940, 24 h
Candida albicans [25] = assay: Fungicidal activity against Candida albicans MTCC 4748 incubated for 24 hrs; type: functional; conditions: MTCC 4748, 24 h
Pichia kudriavzevii [26] = assay: Fungicidal activity against Candida krusei MTCC 3020 incubated for 24 hrs; type: functional; conditions: MTCC 3020, 24 h
Micrococcus luteus [27] = assay: Antibacterial activity against Micrococcus luteus MTCC 2470 incubated for 24 hrs at 37 degC by well diffusion method; type: functional; conditions: MTCC 2470, 24 h
Candida albicans [28] = assay: Antifungal activity against Candida albicans MTCC 4748 incubated for 24 hrs at 30 degC by well diffusion method; type: functional; conditions: MTCC 4748, 24 h
Candida albicans [29] = assay: Fungicidal activity against Candida albicans MTCC 3958 incubated for 24 hrs; type: functional; conditions: MTCC 3958, 24 h
Pseudomonas aeruginosa = assay: Antibacterial activity against Pseudomonas aeruginosa MTCC 2453 incubated for 24 hrs at 37 degC by well diffusion method; type: functional; conditions: MTCC 2453, 24 h
Candida albicans [30] = assay: Antifungal activity against Candida albicans MTCC 7315 incubated for 24 hrs at 30 degC by well diffusion method; type: functional; conditions: MTCC 7315, 24 h
Candida albicans [31] = assay: Antifungal activity against Candida albicans MTCC 3017 incubated for 24 hrs at 30 degC by well diffusion method; type: functional; conditions: MTCC 3017, 24 h
Bacillus subtilis [32] = assay: Antibacterial activity against Bacillus subtilis MTCC 121 incubated for 24 hrs at 37 degC by well diffusion method; type: functional; conditions: MTCC 121, 24 h
Micrococcus luteus [33] = assay: Bactericidal activity against Micrococcus luteus MTCC 2470 incubated for 24 hrs; type: functional; conditions: MTCC 2470, 24 h
Staphylococcus aureus [34] = assay: Antibiofilm activity against Staphylococcus aureus MTCC 96 after 24 hrs by crystal violet staining based assay; type: functional, organism-based; conditions: MTCC 96, 24 h
Nakaseomyces glabratus [35] = assay: Antifungal activity against Candida glabrata MTCC 3019 incubated for 24 hrs at 30 degC by well diffusion method; type: functional; conditions: MTCC 3019, 24 h
Micrococcus luteus [36] = assay: Antibiofilm activity against Micrococcus luteus MTCC 2470 after 24 hrs by crystal violet staining based assay; type: functional, organism-based; conditions: MTCC 2470, 24 h
Candida albicans [37] = assay: Fungicidal activity against Candida albicans MTCC 183 incubated for 24 hrs; type: functional; conditions: MTCC 183, 24 h
Candida albicans [38] = assay: Fungicidal activity against Candida albicans MTCC 1637 incubated for 24 hrs; type: functional; conditions: MTCC 1637, 24 h
Candida albicans [39] = assay: Antifungal activity against Candida albicans MTCC 3018 incubated for 24 hrs at 30 degC by well diffusion method; type: functional; conditions: MTCC 3018, 24 h
Candida albicans [40] = assay: Antifungal activity against Candida albicans MTCC 183 incubated for 24 hrs at 30 degC by well diffusion method; type: functional; conditions: MTCC 183, 24 h
Pichia sporocuriosa [41] = assay: Antifungal activity against Issatchenkia hanoiensis MTCC 4755 incubated for 24 hrs at 30 degC by well diffusion method; type: functional; conditions: MTCC 4755, 24 h
Candida albicans [42] = assay: Antibiofilm activity against Candida albicans MTCC 227 after 24 hrs by crystal violet staining based assay; type: functional, organism-based; conditions: MTCC 227, 24 h
Candida albicans [43] = assay: Fungicidal activity against Candida albicans MTCC 3018 incubated for 24 hrs; type: functional; conditions: MTCC 3018, 24 h
Candida albicans [44] = assay: Induction of ROS accumulation in Candida albicans MTCC 227 sessile cells at 2 to 8 ug/ml incubated for 24 hrs by DCFH-DA dye based microplate reader analysis; type: functional, organism-based

CCCCCCCCC[C@@H](O)[C@H](CO)n1cc(-c2cccc(O)c2)nn1
7.8 µg/mL: MIC ([Candida] aaseri [3]) | MBC (Staphylococcus aureus [8]) | MFC (Nakaseomyces glabratus [11]) | MFC (Pichia sporocuriosa [13]) | MIC (Staphylococcus aureus [14]) | MFC (Candida albicans [19]) | MFC (Candida albicans [20]) | MIC (Staphylococcus aureus [24]) | MIC (Candida albicans [28]) | MIC (Candida albicans [31]) | MIC (Bacillus subtilis [32]) | MIC (Nakaseomyces glabratus [35]) | MIC (Candida albicans [39]) | MIC (Candida albicans [40]) | MIC (Pichia sporocuriosa [41])
> 250 µg/mL: MBC (Escherichia coli [2]) | MIC (Escherichia coli [22]) | MIC (Pseudomonas aeruginosa)
active: Activity (Candida albicans [44])
2.1 µg/mL: IC50 (Micrococcus luteus [36])
15.6 µg/mL: MFC (Candida parapsilosis [4]) | MIC (Pichia kudriavzevii [5]) | MBC (Bacillus subtilis [6]) | MFC ([Candida] aaseri [7]) | MIC (Raoultella planticola [9]) | MIC (Candida albicans [10]) | MBC (Staphylococcus aureus [12]) | MIC (Candida albicans [17]) | MBC (Raoultella planticola [21]) | MIC (Candida parapsilosis [23]) | MFC (Candida albicans [25]) | MFC (Candida albicans [37]) | MFC (Candida albicans [38]) | MFC (Candida albicans [43])
1.9 µg/mL: IC50 (Candida albicans [42])
3.9 µg/mL: MFC (Candida albicans [1]) | MIC (Candida albicans [15]) | MIC (Candida albicans [16]) | MIC (Micrococcus luteus [27]) | MBC (Micrococcus luteus [33])
31.2 µg/mL: MFC (Candida albicans [18]) | MFC (Pichia kudriavzevii [26]) | MFC (Candida albicans [29]) | MIC (Candida albicans [30])
2.9 µg/mL: IC50 (Staphylococcus aureus [34])

CCCCCCCCC[C@@H](O)[C@H](CO)n1cc(CCO)nn1
31.2 µg/mL: MBC (Bacillus subtilis [6]) | MBC (Staphylococcus aureus [8]) | MIC (Staphylococcus aureus [14]) | MIC (Bacillus subtilis [32]) | MBC (Micrococcus luteus [33])
> 250 µg/mL: MBC (Escherichia coli [2]) | MIC (Raoultella planticola [9]) | MBC (Staphylococcus aureus [12]) | MBC (Raoultella planticola [21]) | MIC (Escherichia coli [22]) | MIC (Staphylococcus aureus [24]) | MIC (Pseudomonas aeruginosa)
15.6 µg/mL: MIC (Micrococcus luteus [27])

CCCCCCCCC[C@@H](O)[C@H](CO)n1cc(-c2ccc3cc(OC)ccc3c2)nn1
> 250 µg/mL: MIC (Raoultella planticola [9]) | MIC (Staphylococcus aureus [14]) | MIC (Escherichia coli [22]) | MIC (Staphylococcus aureus [24]) | MIC (Micrococcus luteus [27]) | MIC (Pseudomonas aeruginosa) | MIC (Bacillus subtilis [32])

CCCCCCCCC[C@@H](O)[C@H](CO)n1cc(-c2ccccc2)nn1
7.8 µg/mL: MIC (Staphylococcus aureus [14]) | MBC (Micrococcus luteus [33])
3.9 µg/mL: MIC (Micrococcus luteus [27])
> 250 µg/mL: MBC (Escherichia coli [2]) | MIC (Escherichia coli [22]) | MIC (Pseudomonas aeruginosa)
15.6 µg/mL: MBC (Bacillus subtilis [6]) | MBC (Staphylococcus aureus [8]) | MIC (Staphylococcus aureus [24]) | MIC (Bacillus subtilis [32])
62.5 µg/mL: MFC (Candida albicans [1]) | MFC (Candida parapsilosis [4]) | MIC (Pichia kudriavzevii [5]) | MFC (Nakaseomyces glabratus [11]) | MIC (Candida albicans [16]) | MIC (Candida albicans [17]) | MFC (Candida albicans [18]) | MFC (Candida albicans [19]) | MBC (Raoultella planticola [21]) | MFC (Pichia kudriavzevii [26]) | MIC (Candida albicans [30]) | MIC (Candida albicans [31]) | MIC (Nakaseomyces glabratus [35]) | MFC (Candida albicans [37]) | MIC (Candida albicans [40]) | MIC (Pichia sporocuriosa [41])
125 µg/mL: MIC (Candida albicans [10]) | MFC (Pichia sporocuriosa [13]) | MFC (Candida albicans [20]) | MFC (Candida albicans [25]) | MIC (Candida albicans [28]) | MFC (Candida albicans [29]) | MFC (Candida albicans [38]) | MIC (Candida albicans [39]) | MFC (Candida albicans [43])
31.2 µg/mL: MIC ([Candida] aaseri [3]) | MFC ([Candida] aaseri [7]) | MIC (Raoultella planticola [9]) | MBC (Staphylococcus aureus [12]) | MIC (Candida albicans [15]) | MIC (Candida parapsilosis [23])
